# Test results from patent US20230139025A1, “ANTIOXIDANT FOR USE IN TREATMENT FOR RIBE” (Institute of Hematology and Blood Diseases Hospital, CAMS & …, priority 2021, published 2023).
# B1: IL-1α: cytokine added to the in-vitro culture system (protein, UniProt P01583 113-271, looked up)
# Interleukin-1 alpha: SAPFSFLSNVKYNFMRIIKYEFILNDALNQSIIRANDQYLTAAALHNLDEAVKFDMGAYKSSKDDAKITVILRISKTQLYVTAQDEDQPVLLKEMPEIPKTITGSETNLLFFWETHGTKNYFTSVAHPNLFIATKQDYWVCLAGGPPSITDFQILENQA
# Legend:
# [1] = tested on: in vivo bystander human HSPCs; test: In vivo RIBE model with antioxidant treatment, transplantation of homing human CD34+ cells into NOG mice; settings: FIG. 11C
# Protocol: NOG mice were given antioxidants for 7 days before irradiation.
# For the in vivo RIBE model, CD34^+ cells purified from human cord blood (CB) were intravenously injected into 10 Gy irradiated (RIBE group) or nonirradiated (Control group) NOD/Shi-scid/IL-2Rγ^null (NOG) mice separately. After 17 hours, homing human CD34^+ cells (in vivo bystander cells) from recipients were individually detected or sorted for subsequent experiments (FIG. 1).
# For the in vivo RIBE, the mice were treated with NAC, SF or Res for 7 days. CB CD34^+ cells were injected into nonirradiated or 10 Gy irradiated NOG mice in either the control, RIBE or RIBE with antioxidant treatment groups. After 17 hours, the homing human CD34^+ cells were sorted individually and transplanted into sublethally irradiated NOG mice (FIG. 10).
# [2] = tested on: in vitro bystander human HSPCs; test: Transplantation of in vitro antioxidant-treated bystander human CD34+ cells into NOG mice; type: in vivo; settings: for HPC (CD34+CD38+) engraftment in BM: antioxidant treatment in vitro, FIG. 9C
# Source text: (A) Collected human CD34^+ cells from FIG. 8(A) were transplanted into NOG mice. Mean human cell engraftment (left) after human CD34^+ cells collected from FIG. 8(A) transplanted into NOG mice and bars represent the fold difference of engraftment levels from each group (right, n = 6 to 8 per group). (B-C) Frequency of human CD34^+CD38^- cells (B) and CD34^+CD38^+ cells (C) in the BM of recipient; (D) Mean engraftment level of human cells in the spleen of recipients; and (E) Number of hematopoietic clones formed by human CD34^+ cells of each group (^∗p < 0.05, ^∗∗p <[…] 0.01, ^∗∗∗p < 0.001). For the in vitro RIBE model, we cocultured CB-CD34^+ cells with 10 Gy irradiated or nonirradiated human BM cells using a transwell system. After 17 hours of coculture, the CD34^+ cells in the insert (in vitro bystander cells) were collected for subsequent experiments (FIG. 2). Female NOG mice were irradiated at a dose of 2.0 Gy one day before transplantation. The homing human CD34^+ cells were transplanted into recipients at a dose of 5,000 cells/mouse intravenously. For serial transplantations, 1×10^7 whole BM cells from each primary recipient were intravenously transplanted into secondary recipient mice that were exposed to sublethal irradiation (2.0 Gy). Next, we asked whether the pharmacological inhibition of ROS elevation could protect human HSPCs from functional degradation. We used three antioxidants: N-acetyl-L-cysteine (NAC), sulforaphane (SF) and resveratrol (Res), to eliminate excessive ROS from bystander human HSPCs in vitro. For the in vitro RIBE, the BM cells were treated with NAC, SF or Res for 30 minutes before irradiation, and the antioxidants continued to exist in the coculture system until the CB CD34^+ cells were collected for analysis and some were transplanted into sublethally irradiated NOG mice intravenously (FIG. 7).
# HSPCs = test: ROS levels of HSPCs in cytokine-treated groups; type: cell-based, human
# HSPCs (CD34+ cells) = test: γ-H2AX protein by Western blot after cytokine addition to in vitro culture system; type: cell-based, human; settings: cytokine added to in vitro culture system, FIG. 6H
# Protocol: (A) Flow cytometric analysis of fold change of ROS levels by DCF-DA staining in human CD34^+ cells of in vitro RIBE model; (B) Western blot verified the expression of related signaling pathway at the protein levels.
# For the in vitro RIBE model, we cocultured CB-CD34^+ cells with 10 Gy irradiated or nonirradiated human BM cells using a transwell system. After 17 hours of coculture, the CD34^+ cells in the insert (in vitro bystander cells) were collected for subsequent experiments (FIG. 2).
# Cytokines may exert multiple functions involving stress and inflammatory responses, which are also associated with RIBE. We observed several cytokines including IL-1, IL-6, IL-8, TNF-α, etc., were increased after irradiation (FIG. 6F). […] Moreover, we added IL-1α or IL-1ra to the in-vitro culture system and then measured the γ-H2AX protein by Western blot.
Molecule,HPC (CD34+CD38+) engraftment in BM [1],"myeloid and erythroid engraftment ([2]; antioxidant administration in vitro, BM, vs RIBE group)",HPC (CD34+CD38+) engraftment in BM [2],ROS levels of HSPCs (HSPCs),DNA damage of HSPCs (γ-H2AX protein level) (HSPCs (CD34+ cells))
"Oc1ccc(C=Cc2cc(O)cc(O)c2)cc1 [Res, resveratrol]",could improve HPC engraftment in vivo,significantly higher myeloid and erythroid engraftment than the RIBE group,could improve HPC engraftment,,
"C[S+]([O-])CCCCN=C=S (centres unmarked) [SF, sulforaphane]",,,could improve HPC engraftment,,
IL-1ra: cytokine added to the in-vitro culture system,,,,did not change,can slightly increase DNA damage of bystander HSPCs
B1,,,,did not change,could loosen DNA damage of HSPCs both in the control and RIBE groups
